# Read-outs that look alike come from different tables or passages of the source. Numbered stars: 1 amine (or outer) side, 2 acyl side, 3 side chain; on linkers, the order of the positions; unused ones are H or OH. Bridge positions count the residues as written; N and C are the ends. Square brackets hold non-standard residues; d marks the D form. Peptide text beside a SMILES is read from it. I, II: the chains in the order shown. Actinocin(9to1) = Cc1c2oc3c(C)ccc(C(=O)[*:1])c3nc-2c(C(=O)[*:2])c(N)c1=O; NMeV = CN[C@H](C(=O)O)C(C)C; Sar = CNCC(=O)O
# Experiments:
# Format in all cases: cell-based, human
# [1] = system: THP-1 clone No. 63 (luciferase mRNA with IL-1β 3′UTR instability sequence, three tandem AUUUA motifs); test: Luciferase reporter gene assay, clone No. 63 (pGL2_Neo30 with 30 bp IL-1β 3′UTR mRNA instability sequence); conditions: for Luciferase Activity (% of Control) Clone No. 63: compound 1 μM; for Luciferase Activity (% of Control) Clone No. 63 / Effect on mRNA stability in the assay (Table 3 summary): differentiated cells; for Effect on mRNA stability in the assay (Table 3 summary): clone 63 versus clone 53; for Luciferase Activity Clone 63 γIFN/LPS stimulated: γIFN/LPS stimulated cells, mean of three experiments; for inhibition at 1 µM: Homo sapiens, THP-1
# From the text: (§1) In order to obtain a vector for stable integration into THP-1 cells, a XhoI-SaII fragment of the neo resistant gene (expressing aminoglycoside 3′phosphotransferase) derived from pMC1neoPolyA (Stratagene) was subcloned into the SaII site of pGL2-Control (Promega). This resulting plasmid was called pGL2_Neo. A 30 bp fragment (containing three tandem AUUUA motifs and flanking IL-1β 3′UTR sequence) obtained by annealing two complementary synthetic oligonucleotides (see FIG. 2) was subcloned into pGL2_Neo using the PflMI restriction site. […] The lacZ gene was obtained from a HindIII/BamHI restriction digest of pSV-beta-Galactosidase (Promega) and subcloned into the HindIII/BamHI site of pGL2-Control (Promega).
# (§2) THP-1 cells were then cotransfected with either pGL2_Neo and pGL2-β-galactosidase vectors (to generate control cell lines) or with pGL2_Neo30 and pGL2-β-galactosidase vectors by electroporation. 10^7 cells/ml in 1.3 mM KH2PO4, 7.36 mM Na2HPO4, 2.44 mM KCl, 124 mM NaCl, 5 mM glucose, 9.64 μM MgCl2 and 16 μM CaCl2 pH 7.2 were transfected with 20 μg of DNA in a Bio-Rad Gene Pulser (250V, 690 μF and indefinite resistance) using a 0.4 cm cuvette. Cells were subsequently cultured in RPMI medium containing 10% FBS, 2 mM L-Gln (L-glutamine), 50 μM 2-mercaptoethanol and 600 μg/ml of G418 (geneticin). After transfection of pGL2_Neo30 and pGL2_Neo into THP-1 cells, G418 resistant stable cell lines were obtained by selection with G418 and assayed for luciferase activity. Cotransfected cell lines were also assayed for β-galactosidase activity which can serve as an internal control (see Example 5 below). One cell line of each transfection was chosen for further analysis; the pGL2_Neo30/pGL2-β-galactosidase cell line was referred to as clone No. 63 and the pGL2_Neo/pGL2-β-galactosidase cell line as clone No. 53. No endogenous luciferase activity could be detected in normal THP-1 cells.
# (§3) The transfected human monocytic leukaemia cell lines, clones No. 53 and 63 are grown in RPMI medium supplemented with 110 U/ml penicillin, 100 μg/ml streptomycin, 2 mM L-Gln and 2 g/l NaHCO3. Heat-treated FBS (5%) is added before use. The cells are grown to a density of 5×10^5/ml and induced to differentiate with 100 U/ml (final concentration) γIFN. Three hours later, 10 μl of LPS (5 μg/ml final concentration) is added. This time point is designated time 0. Compounds are added at various times after LPS addition as indicated.
# (§4) In order to adapt the system to the use of 96 well plates, cells were grown in Packard flat bottom white polystyrene microplates (Cat. No. 6005180) in RPMI medium lacking phenol red (AMIMED). Cells were plated at 5×10^4/well. After treatment of the cells, luciferase was measured using the Packard Luc Lite system (Cat. No. 601691 1) according to the manufacturer's instructions in a final volume of 205 μl. Briefly, to a cell suspension of 5×10^5 cells/ml, γIFN (1000 U/ml, Boehringer Mannheim, No. 1050494) to a final concentration of 100 U/ml and 0.25% (v/v) Luc Lite Enhancer was added. After a 3 hour incubation LPS (50 μg/ml Sigma, L-8274) was added to give 5 μg/ml final concentration. The cells were then plated at 5×10^4/100 μl/well into flat bottom white polystyrene microplates (Packard, Cat. No. 6005180) and incubated for 16 hours. 5 μl of compound solution or control vehicle was then added and the cells were further incubated as indicated. 100 μl of luciferase substrate solution was added and the plates were covered with TopSeal-A press-on adhesive sealing film (Packard Cat. No. 6005185) before measuring luminescence with a Packard Top Count Scintillation Counter at 22° C. The luciferase signal was stable for at least 90 min.
# (§5) The THP-1 cell lines, clone Nos. 63 and 53 are grown, differentiated with γIFN and stimulated with LPS identical to normal THP-1 cells. Radicicol analog A was added 16 hours after the addition of LPS and cell extracts were then taken 8 hours later or as indicated. […]
# [2] = system: THP-1 control clone No. 53 (luciferase mRNA without instability sequence); test: Luciferase reporter gene assay, control clone No. 53 (pGL2_Neo, no instability sequence); conditions: for Luciferase Activity (% of Control) Clone No. 53: compound 1 μM, differentiated cells; for Luciferase Activity Clone 53 γIFN/LPS stimulated: γIFN/LPS stimulated cells, mean of three experiments
# From the text: as §1, §2, §3, §4, §5
# [3] = system: THP-1 clones No. 53 and 63 (luciferase); test: Half life of luciferase mRNA and protein after addition of compounds, clones No. 53 and 63; conditions: after 8 hours level comparable to radicicol analog A (1 μM)
# From the text: To measure mRNA degradation using luciferase protein activity it is important to know the half life of the luciferase enzyme in order to determine an optimal time for assaying for potential mRNA destabilizing agents by way of luciferase protein stability. The possibility exists that mRNA could be degraded but due to a long half life of the protein, high enzyme activities could persist. Therefore we analyzed luciferase activities after addition of the transcriptional inhibitor actinomycin D (act. D) or the translational inhibitor cycloheximide (CHX). […] In view of this relatively short half life of the luciferase enzyme, it is safe to assess substances for activity on mRNA degradation as early as 8 hours after compound addition.
# [4] = system: THP-1 clone 63 (pGL2-β-galactosidase, lacZ without mRNA instability sequences); test: β-galactosidase internal control activity, clone 63; conditions: mean of three experiments; for β-galactosidase activity Clone 63 Unstimulated: unstimulated cells; for β-galactosidase activity Clone 63 γIFN/LPS stimulated: γIFN/LPS stimulated cells
# From the text: as §1, §2
# (§6) In the previous examples, test compounds were assayed by comparing their activity in two separate cell lines (clone Nos. 53 and 63). However, clone 63 was cotransfected with two separate plasmids: one plasmid (pGL2_Neo30) contained the luciferase gene with the 30 bp instability sequence driven by the SV40 promoter and the other plasmid (pGL2-β-galactosidase, FIG. 3B) contained the lacZ gene driven by the SV40 promoter but contained no mRNA instability sequences. The β-galactosidase activity of this cell line should not be affected by exposure of the cells to compounds which promote mRNA instability via mRNA instability sequences. As a result, one should be able to screen for compounds having mRNA instability activity by simply comparing luciferase activity in unstimulated cells versus stimulated cells and comparing the β-galactosidase activity in these same cells. […]
# [5] = system: THP-1 clone 53 (pGL2-β-galactosidase, lacZ without mRNA instability sequences); test: β-galactosidase internal control activity, clone 53; conditions: mean of three experiments; for β-galactosidase activity Clone 53 Unstimulated: unstimulated cells; for β-galactosidase activity Clone 53 γIFN/LPS stimulated: γIFN/LPS stimulated cells
# From the text: as §1, §2, §6
# [6] = system: IL-1β-AU cDNA derived RNA (3′ UTR AREs deleted) in THP-1 cells; test: RNase protection analysis of IL-1β-AU (ARE-deleted) RNA in stably transfected THP-1 cells; conditions: THP-1 cells stably transfected with IL-1β-AU construct
# From the text: For examples 1-5, the segment of 3′ UTR of IL-1β which contains all the AREs was deleted and the resulting IL-1β-AU cDNA was subcloned into an expression vector.
# [7] = system: THP-1 clone No. 63 (luciferase mRNA with IL-1β 3′UTR instability sequence, three tandem AUUUA motifs); test: Luciferase reporter gene assay, clone No. 63 (pGL2_Neo30 with 30 bp IL-1β 3′UTR mRNA instability sequence); conditions: for Luciferase Activity Clone 63 Unstimulated: unstimulated cells, mean of three experiments
# [8] = system: THP-1 control clone No. 53 (luciferase mRNA without instability sequence); test: Luciferase reporter gene assay, control clone No. 53 (pGL2_Neo, no instability sequence); conditions: 10 μM; unstimulated cells; mean of three experiments
compound,measurement,setting,value
"C=C(C/C=C/C(C)(C)O)[C@@H]1CC[C@]2(C)[C@@H]1CC[C@@H]1[C@@]3(C)CC[C@H](O)C(C)(C)[C@@H]3CC[C@]12C [(17α)-23-(E)-dammara-20,23-dien-3β,25-diol]",Luciferase Activity (% of Control) Clone No. 63,[1],91 % of Control
same,Luciferase Activity (% of Control) Clone No. 53,[2],116 % of Control
C[C@@H]1C[C@@H]([C@H](O)CC2CC(=O)NC(=O)C2)C(=O)[C@@H](C)C1 [cycloheximide],Luciferase activities after addition of translational inhibitor,[3]; 20 μM,rapidly declined
"Cc1c2oc3c(C)ccc(C(=O)N[C@@H]4C(=O)N[C@H](C(C)C)C(=O)N5CCC[C@H]5C(=O)N(C)CC(=O)N(C)[C@@H](C(C)C)C(=O)O[C@@H]4C)c3nc-2c(C(=O)N[C@@H]2C(=O)N[C@H](C(C)C)C(=O)N3CCC[C@H]3C(=O)N(C)CC(=O)N(C)[C@@H](C(C)C)C(=O)O[C@@H]2C)c(N)c1=O [actinomycin D] (I: T[dV]P[Sar][NMeV] / II: T[dV]P[Sar][NMeV]; ester I:1-I:C, II:1-II:C; linker I:N-II:N via Actinocin(9to1))",Luciferase activities after addition of transcriptional inhibitor,[3]; 20 μg/ml,rapidly declined
Stemphon,Luciferase Activity (% of Control) Clone No. 63,[1],90 % of Control
same,Luciferase Activity (% of Control) Clone No. 53,[2],95 % of Control
"COc1cc(O)c2c(c1OC)/C=C/C[C@H](O)[C@H](O)C(=O)/C=C\C[C@H](C)OC2=O [Radicicol analog A, radicicol analog A]",Effect on mRNA stability in the assay (Table 3 summary),[1]; 1 μM,clear effect on mRNA stability
same,Luciferase Activity Clone 63 γIFN/LPS stimulated,[1]; 1 μM,7 % control
same,Luciferase Activity Clone 63 γIFN/LPS stimulated,[1]; 10 μM,2 % control
same,inhibition at 1 µM,"[1]; 1 μM, differentiated clone No. 63, 8 hours, read-out: Inhibition of luciferase activity, greatest in some cases",93%
same,inhibition at 1 µM,"[1]; 1 μM, differentiated clone No. 63, added 16 h after LPS, extracts 8 hours later, read-out: Inhibition of luciferase activity, on average",50%
same,Luciferase Activity (% of Control) Clone No. 63,[1],49 % of Control
same,Concentration dependence of luciferase inhibition in differentiated clone No. 63,"[1]; differentiated clone No. 63, 8 hr. treatment (FIG. 8)",Concentration dependent inhibition of luciferase activity
same,Luciferase Activity Clone 53 γIFN/LPS stimulated,[2]; 1 μM,88 % control
same,Luciferase Activity Clone 53 γIFN/LPS stimulated,[2]; 10 μM,63 % control
same,Luciferase Activity (% of Control) Clone No. 53,[2],120 % of Control
same,Effect on control clone (No. 53) at high concentrations (cytotoxicity or inhibitory activity on transcription),[2]; concentrations higher than 5×10^−6 M,also inhibited the control clone
same,Effect on luciferase activity of control clone No. 53,[2]; up to 5×10^−6M,no effects
same,β-galactosidase activity Clone 63 Unstimulated,[4]; 1 μM,96 % control
same,β-galactosidase activity Clone 63 γIFN/LPS stimulated,[4]; 1 μM,97 % control
same,β-galactosidase activity Clone 63 Unstimulated,[4]; 10 μM,84 % control
same,β-galactosidase activity Clone 63 γIFN/LPS stimulated,[4]; 10 μM,70 % control
same,β-galactosidase activity Clone 53 Unstimulated,[5]; 1 μM,99 % control
same,β-galactosidase activity Clone 53 γIFN/LPS stimulated,[5]; 1 μM,98 % control
same,β-galactosidase activity Clone 53 Unstimulated,[5]; 10 μM,103 % control
same,β-galactosidase activity Clone 53 γIFN/LPS stimulated,[5]; 10 μM,62 % control
same,Response of AU-less derived RNA to compound (RNase protection),[6],showed resistance
same,Reduction of luciferase activity in undifferentiated clone No. 63,"[7]; 1 μM, undifferentiated cells, 8 hr. treatment",only a limited reduction of luciferase activity
same,Luciferase Activity Clone 63 Unstimulated,[7]; 1 μM,63 % control
same,Luciferase Activity Clone 63 Unstimulated,[7]; 10 μM,11 % control
same,Luciferase Activity Clone 53 Unstimulated,[8],87 % control
Radicicol,Effect on mRNA stability in the assay (Table 3 summary),[1]; 1 μM,clear effect on mRNA stability
same,Luciferase Activity (% of Control) Clone No. 63,[1],47 % of Control
same,Luciferase Activity (% of Control) Clone No. 53,[2],98 % of Control
C[C@@H]1C[C@H]2[C@@H]3CCC4=CC(=O)C=C[C@]4(C)[C@@]3(F)[C@@H](O)C[C@]2(C)[C@@]1(O)C(=O)CO [Dexamethasone],Luciferase Activity (% of Control) Clone No. 63,[1],63 % of Control
same,Luciferase Activity (% of Control) Clone No. 53,[2],72 % of Control
O=C1CCC(N2C(=O)c3ccccc3C2=O)C(=O)N1 (centres unmarked) [Thalidomide],Luciferase Activity (% of Control) Clone No. 63,[1],112 % of Control
same,Luciferase Activity (% of Control) Clone No. 53,[2],98 % of Control

# Source: US7598079B2, “Assay for identifying compounds which affect stability of mRNA” (Novation Pharmaceuticals, Inc., priority 1998, dated 2009)
